Test system: cotyledons
Test: Growth of excised cucumber cotyledons (fresh biomass) in treatment solution
Format: in vivo, Cucumbers
Details: for Mean cotyledon biomass: 3 days in the dark at 25° C., 20 cotyledons per treatment; for Observed efficacy (%): % biomass increase compared to 0.5% DMSO control; for growth stimulation of the cotyledons: applied alone
Protocol: The effect of dicamba as an example for compound (I), pyraclostrobin as an example for compound (II) and the respective mixture comprising both compounds on the growth of cotyledons, as one indicator of a plant's health, was evaluated. Cucumbers were sown and germinated in the dark at 25° C. for 4 days. Subsequently, 20 cotyledons per treatment were cut and placed in a Petri dish containing 20 ml of the treatment solution. Control cotyledons were treated with the 0.5% DMSO solution. Following the incubation in the dark at 25° C. for 3 days the cotyledons were weight and the fresh biomass recorded (table 1).
The efficacy of the tested compounds was calculated as % of biomass increase compared to the control:
E=(a/b−1)*100 • a corresponds to the biomass (mg) of the treated cotyledons after incubation; • b corresponds to the biomass (mg) of untreated cotyledons after incubation (control).
The expected efficacies of the combinations of the active ingredients were estimated using Colby's formula (Colby, S. R., Calculating synergistic and antagonistic responses of herbicide combinations, Weeds, 15, pp. 20-22, 1967) and compared with the observed efficacies.
Colby's formula: E=x+y−x*y/100 • E expected efficacy, expressed in % of the untreated control, when using the mixture comprising the compounds A and B at the concentrations a and b; • x efficacy, expressed in % of the untreated control, when using compound A at the concentration a; • y efficacy, expressed in % of the untreated control, when using compound B at the concentration b.

Row | Structure (SMILES) | Mean cotyledon biomass (1.25 ppm in 0.5% DMSO) [mg] | Observed efficacy (%) (1.25 ppm) | growth stimulation of the cotyledons | Mean cotyledon biomass (2 ppm in 0.5% DMSO) [mg] | Observed efficacy (%) (2 ppm)
1 | COc1c(Cl)ccc(Cl)c1C(=O)O [Dicamba, dicamba] | 69.9 | −0.8 | no growth stimulation | – | –
2 | COC(=O)N(OC)c1ccccc1COc1ccn(-c2ccc(Cl)cc2)n1 [Pyraclostrobin, pyraclostrobin] | – | – | no growth stimulation | 67.7 | −3.9
